{
  "source": "paper PMC10622577",
  "about": "“Structural basis for stabilisation of the RAD51 nucleoprotein filament by BRCA2” (Nature Communications, 2023)",
  "key": {"RAD51 NPFs": {"tested_on": "RAD51 NPFs", "assay": "cryo-electron micrographs, bundling of RAD51 NPFs on uncapped DNA", "set-up": "species or system human", "settings": "1:0.5 molar ratio of TR2 peptide; uncapped ss- and dsDNA; two independent repeats", "from_the_text": "To understand the structural basis for the association of the BRCA2 C-terminus with the RAD51 nucleoprotein filament, we sought to determine the structure of a RAD51-DNA-TR2 filament by high-resolution cryo-electron microscopy (cryoEM). […] Individual filaments within a bundle appeared to be in translational register relative to each other as it was possible to obtain well-resolved 2D classes of filament pairs (Supplementary fig. 5A, Supplementary Table 1). Filament aggregation induced by TR2 complicated picking of individual filament particles and prevented structural determination by cryoEM. We therefore sought to develop a method to prepare RAD51 NPFs in the presence of TR2 peptide without causing filament bundling. We reasoned that bundling might be alleviated by capping the DNA substrate with a bulky tag, to prevent filament aggregation by steric interference. We therefore prepared ss- and dsDNA substrates with a biotin tag at either one end or both ends, that could be bound by monomeric streptavidin (mSA) (Supplementary Fig. 5B, Supplementary Table 1).\nFig. 2 BRCA2 TR2 induces bundling of RAD51 nucleoprotein filaments. A Cryo-electron micrographs of RAD51 NPFs formed on ssDNA and dsDNA in the presence of 1:0.5 molar ratio of TR2 peptide. Extensive NPF aggregation into bundles of aligned filaments is clearly visible (examples marked with dashed white boxes). Two independent repeats. […]"}, "RAD51 D184A NPFs": {"tested_on": "RAD51 D184A NPFs", "assay": "SPR of TR2 binding to RAD51 D184A NPFs", "set-up": "species or system human", "settings": "n = 3", "protocol": "We investigated further the effect of the acidic patch mutations on TR2 binding using surface plasmon resonance (SPR). We developed an SPR assay whereby increasing amounts of TR2 peptide were added to RAD51 NPFs that had been assembled on biotinylated DNA coupled to a streptavidin chip (Supplementary Fig. 3A, Supplementary Table 1). […] We used the same SPR assay to assess the effect of the mutations on the ability of BRC4 to disrupt an established filament (Supplementary Fig. 4A, Supplementary Table 1).\nAll SPR experiments were performed using a Biacore T200 instrument and an S-series SA (Streptavidin) sensor chip. A single chip was used to immobilise biotinylated single- and double-stranded DNA in buffer: 25 mM HEPES pH 7.4, 100 mM NaCl, 1 mM EDTA. ssDNA and dsDNA were immobilised in different channels to a signal of 120 RU and 250 RU, respectively. […]\nFor the BRCA2 TR2 titration series, blank-subtracted sensorgrams were used to extract the maximum response accumulated after each TR2 injection. TR2 response accumulation was corrected to account for differences in RAD51 filament formation between runs, by multiplying the maximum response by a scale factor calculated as the ratio between mean RAD51 filament accumulation on each DNA substrate and the mean RAD51 accumulated for each mutant for each triplicate. […]"}, "[1]": {"tested_on": "RAD51 nucleoprotein filaments", "settings": "cited from earlier work"}},
  "data": [
    {"sequence": "DDQKNCKKRRALDFLSRLPLPPPVSPICTFVSPAAQKAFQPPRSCGTKY [TR2, BRCA2 TR2 peptide spanning amino acids 3260 to 3308]", "values": [
      {"measurement": "bundling of RAD51 NPFs", "setting": "RAD51 NPFs", "result": "extensive bundling of RAD51 NPFs with both ss- and dsDNA"},
      {"measurement": "TR2 binding by SPR relative to wild-type", "setting": "RAD51 D184A NPFs; Biacore T200, streptavidin chip, biotinylated ss- or dsDNA, CMA buffer pH 7.4, 1 μM RAD51, TR2 0.1-15 μM, 120 s", "result": "clear reduction in TR2 binding"},
      {"measurement": "impact of mutation on TR2 binding by SPR, ssDNA versus dsDNA", "setting": "RAD51 D184A NPFs; ssDNA compared with dsDNA", "result": "stronger for NPFs formed on ssDNA"},
      {"measurement": "effect of TR2 binding on RAD51 NPFs", "setting": "[1]", "result": "stabilisation of RAD51 NPFs and formation of filament aggregates"},
      {"measurement": "protection of RAD51 NPFs from disassembly by BRC repeat 4", "setting": "[1]", "result": "protection of RAD51 nucleoprotein filaments from disassembly by BRC repeat 4 of BRCA2"}
    ]}
  ]
}
